Laboratory results published in patent US9079852B2, “NMDA receptor antagonists for neuroprotection” (Emory University, priority 2007, dated 2015).
pIC50: −log10 of the molar value.

Columns and labels:
[1] = biological target: rat alpha-1 adrenergic receptor; test: alpha-1 adrenergic receptor binding by displacement of 3[H]-prazosin in rat brain membranes; details: 3[H]-prazosin displacement, read-out: α1 IC50
Procedure: Binding to the rat alpha-1 adrenergic receptor in rat brain membranes was determined by displacement of ^3[H]-prazosin (P. Greengrass and R. Bremner; Binding characteristics of 3H-prazosin to rat brain a-adrenergic receptors. Eur. J. Pharmacol. 1979, 55: 323-326). Compounds were incubated at 0.3 or 3 μM final concentration, in duplicate, and the amount of displaced ^3[H]-prazosin determined by liquid scintillation spectroscopy.
Binding IC50 values were determined from displacement curves (four-six concentrations, each concentration in duplicate) fit by a non-linear, least squares, regression analysis using MathIQ (ID Business Solutions Ltd., UK). The binding Ki's were determined from the IC50 according to the method of Cheng and Prusoff (Y. Cheng and W. H. Prusoff; Relationship between the inhibition constant (K1) and the concentration of inhibitor which causes 50 percent inhibition (IC50) of an enzymatic reaction. Biochem. Pharmacol. 1973, 22: 3099-3108).

[2] = Plasma half-life / plasma pharmacokinetics (Table G); format: in vivo; details: rat
Procedure: (§1) Animals were fasted overnight prior to dose administration and food returned to the animals two hours after dosing. Following IV dosing, blood samples (ca 200 μL) were collected into separate tubes containing anticoagulant (K-EDTA) via the orbital plexus at various times post administration. Plasma samples were prepared immediately after collection by centrifugation for ten minutes using a tabletop centrifuge, and stored at −80° C. Brain tissue was weighed, homogenized on ice in 50 mM phosphate buffer (2 ml per brain) and the homogenate stored at −80° C. Plasma and brain homogenate samples were extracted by the addition of 5 volumes of cold acetonitrile, mixed well by vortexing and centrifuged at 4000 rpm for 15 minutes. The supernatant fractions were analyzed by LC-MS/MS operating in multiple reaction monitoring mode (MRM). The amount of parent compound in each sample was calculated by comparing the response of the analyte in the sample to that of a standard curve.

[3] = Brain exposure / brain penetration (Table H); format: in vivo, rat; details: for BBB Pene Classification: classes High/Moderate/Low, key not given
Procedure: as §1, with “Rats (n=3 per dose) were administered compounds at a doses of 1-4 mg/kg in a single bolus i.v. infusion (2 ml/kg body weight) via the tail vein formulated in 2% dimethyl acetamide/98% 2-hydroxy-propyl cyclodextrin (5%). Animals” for “Animals”

[4] = Oral absorption (Table I); format: in vivo; details: rat, plasma, read-out: p.o. t½ hr (converted)
[5] = iv, 3 mg/kg, 3 MPK i.v., read-out: PK-i.v. t½ (converted)
[6] = iv, 1 mg/kg, 1 MPK i.v., read-out: PK-i.v. t½ (converted)

For CS(=O)(=O)Nc1ccc(OC[C@@H](O)CN2CCN(c3ccc(Cl)cc3)CC2)cc1, the pIC50 [1] was 6.46.
For O[C@H](COc1ccc2[nH]ncc2c1)CN1CCN(c2ccc(Cl)cc2)CC1, the pIC50 [1] was roughly 6.52.
Compound O=c1ccc2cc(OC[C@@H](O)CN3CCN(c4ccc(Cl)cc4)CC3)ccc2[nH]1 has a pIC50 [1] of roughly 6.46.
Work on O=c1[nH]c2ccc(OC[C@@H](O)CN3CCN(c4ccc(Cl)cc4)CC3)cc2[nH]1 yielded a pIC50 [1] of roughly 6.46.
Compound O=C1Cc2cc(OC[C@@H](O)CN3CCN(c4ccc(Cl)cc4)CC3)ccc2N1 has a pIC50 [1] of roughly 7.00.
Compound O[C@H](COc1ccc2[nH]c(=S)[nH]c2c1)CN1CCN(c2ccc(Cl)cc2)CC1 has a pIC50 [1] of roughly 6.82.
In the case of O=C1CCc2cc(OC[C@@H](O)CN3CCN(c4ccc(Cl)cc4)CC3)ccc2N1, the pIC50 [1] was roughly 7.00.
For CS(=O)(=O)Nc1ccc(OC[C@@H](O)CN2CCN(c3ccc(Cl)c(Cl)c3)CC2)cc1, the half-life [2, 5] was 2.6 h.
With O=C(COc1ccc2[nH]c(=O)[nH]c2c1)N1CCN(c2ccc(Cl)c(Cl)c2)CC1 the half-life [2, 6] was 1.84 h.
In the case of Oc1ccc(OC[C@@H](O)CN2CCN(c3ccc(Cl)cc3)CC2)cc1 [drawing 743], the pIC50 [1] was 6.14.
For O=c1[nH]c2ccc(OC[C@@H](O)CN3CCN(c4ccc(Cl)cc4)CC3)cc2o1 [drawing 744], the pIC50 [1] was 6.21.
Compound NC(=O)Nc1ccc(OC[C@@H](O)CN2CCN(c3ccc(Cl)cc3)CC2)cc1 [drawing 746] has a pIC50 [1] of 6.47.
Compound NC(=O)Nc1ccc(OC[C@@H](O)CN2CCN(c3ccc(Cl)cc3)CC2)cc1 [drawing 754] has a half-life [2, 6] of 2.7 h.
O=c1[nH]c2ccc(OC[C@@H](O)CN3CCN(c4ccc(F)c(F)c4)CC3)cc2[nH]1 [drawing 755] gave a half-life [2, 6] of 2.4 h.
In the case of CS(=O)(=O)Nc1ccc(OC[C@@H](O)CN2CCN(c3ccc(F)c(F)c3)CC2)cc1 [drawing 757], the half-life ([2]; ip, 60 mg/kg, 60 MPK i.p., read-out: PK t½ (hr) i.p.) was greater than 2 h.
For Cc1ccc(N2CCN(C[C@H](O)COc3ccc4c(c3)CCC(=O)N4)CC2)cc1 [drawing 758], the half-life [2, 6] was 0.8 h.
Work on Oc1ccc(OC[C@@H](O)CN2CCN(c3ccc(Cl)cc3)CC2)cc1 [drawing 759] yielded a half-life [2, 6] of 0.6 h.
Work on O=c1[nH]c2ccc(OC[C@@H](O)CN3CCN(c4ccc(Cl)cc4)CC3)cc2o1 [drawing 760] yielded a half-life [2, 6] of 0.6 h.
Compound Cc1ccc(N2CCN(C[C@H](O)COc3ccc4[nH]c(=O)oc4c3)CC2)cc1 [drawing 761] has a half-life [2, 6] of 0.6 h.
With NC(=O)Nc1ccc(OC[C@@H](O)CN2CCN(c3ccc(Cl)cc3)C2=O)cc1 [drawing 762] the half-life [2, 6] was 1.14 h.
O=C1N(C[C@H](O)COc2ccc(O)cc2)CCN1c1ccc(Cl)cc1 [drawing 763] gave a half-life [2, 5] of no more than 0.8 h.
Work on O=C(COc1ccc2[nH]c(=O)oc2c1)N1CCN(c2ccc(Cl)c(Cl)c2)CC1 [drawing 765] yielded a half-life ([2]; ip, 10 mg/kg, 10 MPK i.p., read-out: PK t½ (hr) i.p.) of roughly 0.83 h.
Work on O=c1[nH]c2ccc(OC[C@@H](O)CSc3nc4cc(Cl)c(Cl)cc4[nH]3)cc2o1 [drawing 766] yielded a half-life [2, 5] of no more than 0.8 h.
With Oc1ccc(OC[C@@H](O)CSc2nc3cc(Cl)c(Cl)cc3[nH]2)cc1 [drawing 767] the half-life [2, 5] was roughly 0.5 h.
In the case of Oc1ccc(OC[C@@H](O)CN2CCN(c3ccc(Cl)cc3)CC2)cc1 [drawing 768], the “BBB Pene Classification” value [3] was “High”.
With Cc1ccc(N2CCN(C[C@H](O)COc3ccc4[nH]c(=O)oc4c3)CC2)cc1 [drawing 769] the “BBB Pene Classification” value [3] was “Moderate”.
In the case of CS(=O)(=O)Nc1ccc(OC[C@@H](O)CN2CCN(c3ccc(F)c(F)c3)CC2)cc1 [drawing 770], the “BBB Pene Classification” value [3] was “Moderate”.
For NC(=O)Nc1ccc(OC[C@@H](O)CN2CCN(c3ccc(Cl)cc3)CC2)cc1 [drawing 771], the “BBB Pene Classification” value [3] was “Low”.
For O=C1N(C[C@H](O)COc2ccc(O)cc2)CCN1c1ccc(Cl)cc1 [drawing 772], the “BBB Pene Classification” value [3] was “High”.
In the case of NC(=O)Nc1ccc(OC[C@@H](O)CN2CCN(c3ccc(Cl)cc3)C2=O)cc1 [drawing 773], the “RATIO: Brain:plasma (Direct)” value ([3]; 1 MPK i.v., no time point printed) was “Below Detection limit (~0)” and the “BBB Pene Classification” value [3] was “Low”.
For O=C(COc1ccc2[nH]c(=O)oc2c1)N1CCN(c2ccc(Cl)c(Cl)c2)CC1 [drawing 774], the “BBB Pene Classification” value [3] was “Moderate”.
With O=C(COc1ccc2[nH]c(=O)oc2c1)N1CCN(c2ccc(Cl)c(Cl)c2)CC1 [drawing 775] the Kp at 15 min ([3]; rat, brain/plasma, iv, 1 mg/kg, 1 MPK i.v., 15 m, read-out: RATIO: Brain:plasma (Direct), 15 m) was 0.04, the Kp at 30 min ([3]; rat, brain/plasma, iv, 1 mg/kg, 1 MPK i.v., 30 m, read-out: RATIO: Brain:plasma (Direct), 30 m) was 0.06 and the Kp at 1 h ([3]; rat, brain/plasma, iv, 1 mg/kg, 1 MPK i.v., 1 hr, read-out: RATIO: Brain:plasma (Direct), 1 hr) was 0.07. For the same compound, the Kp at 3 h ([3]; rat, brain/plasma, iv, 1 mg/kg, 1 MPK i.v., 3 hr, read-out: RATIO: Brain:plasma (Direct), 3 hr) was 0.1 and the Kp ([3]; rat, brain/plasma, iv, 1 mg/kg, 1 MPK i.v., avg, read-out: RATIO: Brain:plasma (Direct), avg) was 0.07.
With Oc1ccc(OC[C@@H](O)CSc2nc3cc(Cl)c(Cl)cc3[nH]2)cc1 [drawing 776] the “RATIO: Brain:plasma (Direct), 2 hr” value ([3]; 3 MPK i.v., 2 hr) was “BLQ” and the “BBB Pene Classification” value [3] was “High”.
With O=c1[nH]c2ccc(OC[C@@H](O)CSc3nc4cc(Cl)c(Cl)cc4[nH]3)cc2o1 [drawing 777] the “RATIO: Brain:plasma (Direct), 30 m” value ([3]; 3 MPK i.v., 30 m) was “BLQ (avg); BLQ (30 m), BLQ (1 hr),”, the “RATIO: Brain:plasma (Direct), 1 hr” value ([3]; 3 MPK i.v., 1 hr) was “BLQ (avg); BLQ (30 m), BLQ (1 hr),” and the “RATIO: Brain:plasma (Direct), avg” value ([3]; 3 MPK i.v., avg) was “BLQ (avg); BLQ (30 m), BLQ (1 hr),”. For the same compound, the “BBB Pene Classification” value [3] was “Moderate”.
Compound NC(=O)Nc1ccc(OC[C@@H](O)CN2CCN(c3ccc(Cl)cc3)CC2)cc1 [drawing 778] has a half-life ([4]; 10 mg/kg, 10 MPK, 0-8 hr p.o.) of 388 min.
For O=c1[nH]c2ccc(OC[C@@H](O)CN3CCN(c4ccc(F)c(F)c4)CC3)cc2[nH]1 [drawing 779], the half-life ([4]; 5 mg/kg, 5 MPK, 0-6 hr p.o.) was 182 min.
In the case of Cc1ccc(N2CCN(C[C@H](O)COc3ccc4c(c3)CCC(=O)N4)CC2)cc1 [drawing 780], the half-life ([4]; 5 mg/kg, 5 MPK, 0-6 hr p.o.) was 51 min.
